Data on four compounds can be found in patent publication US20040014772A1, “Compositions and methods for treating glomerular disorders” (priority 2000, published 2004).

Data set [1] can be described thus: Weight loss/gain of rats before and after treatments (PAN-induced nephrotic syndrome). Type of data set: in vivo, rat. Particulars: rats, day 7; PAN 7.5 mg/100 g BW iv; CM 120 mg/kg ip twice a day; PB 400 mg/kg ip every other day; means ± SE. The protocol: Two different general CYP inhibitors were used, cimetidine (CM) and piperonyl butoxide (PB). Cimetidine has imidazole and cyano groups that inhibit CYP by interacting with the heme moiety. […] To determine the effect of the CYP inhibitors in PAN- induced nephrotic syndrome, CM (120 mg/kg BW) was administered intraperitoneal 1 h prior to PAN injection and then twice a day. Piperonyl butoxide (PB) which yields a metabolite that binds to the heme moiety of CYP, was given intraperitoneal (400 mg/kg BW) 4h before PAN injection and then every other day.
Also, the CYP2B1 inhibitor piperine (PIP), a methylenedioxyphenyl compound found in black and red pepper was used. PIP is believed to inhibit CYP2B1 by forming an inhibitory complex therewith. PIP was administered at a dose of 85 mg/kg of body weight (BW) by an intraperitoneal injection 16 hours prior to PAN injection and then once a day.

For data set [2], the system named is CYP2B1. As to the kind of experiment: CYP2B1 content in GEC exposed to PAN (western blot). Type of data set: cell-based, rat. Particulars: PAN 1.5 mM for 2 hr at 37° C.; CM 2 mM, PIP 0.2 mM, pyruvate 10 mM. An excerpt:
The microsome fraction obtained was subjected to SDS-page electrophoresis in 1 mm slab gels. The separated forms were transferred from gel to a nitrocellulose sheet using a Mini Trans-blot electroblotting unit. The primary antibodies were monoclonal anti-HO-1 (OSA-111, StressGen, Victoria, BC, Canada) and monoclonal anti-CYP2B1 (PM25, Oxford Biomedical Research, Oxford, Mich., USA). Subsequent to primary and secondary antibody (peroxidase-labeled) treatment, the blots were visualized by enhanced chemiluminescence method.

The test system of data set [3] is CYP. The following applies: cited from earlier work.
Data set [4] has as its system glomerular epithelial cells GEC. As to the kind of experiment: PAN-induced cytotoxicity to GEC (trypan blue exclusion, LDH release). In kind it is cell-based, rat. Particulars: PAN 1.5 mM 48 h; preincubation CM 2 mM, PB 25 μM, RN 1 mM, PIP 0.2 mM, pyruvate 10 mM. The method, then:
Rat GEC (kindly provided by both Dr. Saulo Klahr, Washington University School of Medicine, St. Louis, Mo., and Dr. […], University of Texas Health Science Center, San Antonio, Tex.) were maintained in RPMI-1640 medium supplemented with 10% FBS, 15 mM HEPES, insulin, penicillin, streptomycin and L-glutamine in a humidified atmosphere of 95% air-5% CO2 at 37° C. and fed at intervals of 3 days ([…] et al, 1995, Biochem. Biophys. 318(2):286-294). The cells were maintained in 75 Cm^2 tissue culture flasks and the monolayers were subcultured using 0.05% trypsin-0.53 mM EDTA in Hank's balanced salt solution (HBSS). For the experimental study, the cells were grown in 12-well tissue culture plate until confluence. On the day of experiment, the medium was discarded and the confluent GEC monolayer was washed twice with HBSS. The cells were then incubated with various concentrations of PAN (0, 0.1, 0.5, 1.0, 1.5, and 2.0 mM in HBSS) for different periods of time (0, 6 hours, 1 day, 2 days, 3 days and 4 days) at 37° C. At the end of the incubation, the incubation medium was discarded and the GEC monolayer was harvested by trypsinization with 0.05% trypsin-0.53 mM EDTA for 5 min at 37° C. Isolated cells were suspended in HBSS to give about 10^6 cells/ml. PAN-induced cytotoxicity to GEC was measured by the trypan blue exclusion assay (Baliga et al, 1996, Kidney Intl. 50:1118-1124) and lactate dehydrogenase (LDH) release assay (Baliga et al., 1998, Kidney Intl. 53:394-401.). The latter is the percentage of LDH released into the medium, to total LDH recovered from both medium and cellular fraction. […] After the incubation, the cell monolayers were washed twice with HBSS and then incubated with cytotoxic dose of PAN in HBSS for a period of time necessary to induce consistent cytotoxicity ([…], 48 h, based on the concentration and time course studies) at 37° C. PAN induced cytotoxicity on GEC was measured by trypan blue exclusion assay.

`CCCCOCCOCCOCc1cc2c(cc1CCC)OCO2` [PB, piperonyl butoxide]: the “Body weight After Treatment (day7)” value in data set [1] was determined as 253 ± 4 g.
Take `CNC(=C[N+](=O)[O-])NCCSCc1ccc(CN(C)C)o1` [RN, ranitidine]: in data set [2], the “CYP2B1 content in GEC” value is recorded as “not”. The “inhibition of CYP” value in data set [3] is “either weakly or not at all”. Moreover, the “PAN-induced cytotoxicity to GEC” value in data set [4] is recorded as “did not show any protection”.
As to `CC(=O)C(=O)O` [pyruvate], the “CYP2B1 content in GEC” value in data set [2] is “preserve”. Moreover, the “PAN-induced cytotoxicity to GEC” value in data set [4] is “prevent”.
The corresponding values for `O=C(/C=C/C=C/c1ccc2c(c1)OCO2)N1CCCCC1` [PIP, piperine] are “preserved” and “markedly reduced”.
